Laboratory results: patent publication US10856562B2, “Flavor composition and edible compositions containing same” (MARS, INCORPORATED, priority 2013, dated 2020)
Square brackets hold non-standard residues; d marks the D form. Ends that are not written are not given here. pGlu = O=C1CC[C@@H](C(=O)O)N1

Tested on: panelists
Test: Consensus attribute scores of flavor enhancers in Uncle Ben's Garden Vegetable Ready rice
Assay type: in vivo, human
Design: key to Cooked White Rice / Vegetable Oil / Vegetable Complex / Cooked Green Vegetable / Cooked Corn / Sweet (BASIC TASTES) / Salt (BASIC TASTES) / Mouthdrying (Texture) / Residual Mouthcoating (Texture) / Total Aromatics / Bitter (BASIC TASTES): 15-point scale, 0 = none, 15 = very strong
Conditions: for Bitter (BASIC TASTES) / Black Pepper / Cooked Corn / Cooked Green Vegetable / Cooked White Rice / Dehydrated onion/garlic / HVP/Brothy / Mineral/Flint / Mouthdrying (Texture) / Residual Mouthcoating (Texture) / Salt (BASIC TASTES) / Salt Burn (Chemical Feeling Factors) / Sweet (BASIC TASTES) / Total Aromatics / Umami (Chemical Feeling Factors) / Vegetable Complex / Vegetable Oil: rice
Protocol: Descriptive attributes (e.g., taste, flavor and chemical feeling factors) of three use levels of pGlu-Cys (FE-35), pGlu-Cys-Gly (FE-36), pGlu-Cys-Cys (FE-37), pGlu-Cys-Val (FE-38) and pGlu-Val-Cys (UE-30) flavor composition peptides were determined. The three use levels were as follows: 1.0 ppb, 10.0 ppb and 100.0 ppb.
Data was collected for the attributes of the product in-mouth for the use levels according to the following protocol: • The samples were analyzed for flavor by six to nine members of a panel, trained and experienced in flavor evaluation using the Spectrum™ method. Samples were evaluated across multiple panel sessions. • The strength of each attribute was rated on a 15-point scale, where 0=none and 15=very strong. • This scale incorporates the ability to use tenths of a point and therefore has the potential of 150 scale differentiations. • The scale may be expanded beyond 15 points to include extreme ratings if necessary.
Preparation of Rice Samples • Each flavor enhancer was tested in Uncle Ben's Garden Vegetable Ready rice matrix at 3 different concentrations: 1 ppb, 10 ppb and 100 ppb. A total of 15 points with flavor enhancers were prepared for sensory evaluation. Additionally, 15 control samples were prepared. Each point had 2 samples (test and control) and was made from one pouch of rice. • Directions to prepare the solutions: • The 15 ready- to eat pouches were microwaved according to the procedure found on the back of the pouch: (1) squeeze pouch to separate rice, (2) tear two inches to vent, (3) heat on High for 90 seconds and (4) remove from microwave using COOL TOUCH area on untorn side. • From each pouch 124.75 g (test sample) and 99.8 g (control) were weighed out. The test sample had the flavor enhancer and/or salt. The control sample only had salt added. • The flavor enhancer and/or salt (non-iodized salt) were weighed in a soufflé cup. The weighed amount of flavor enhancer and/or salt was added to the sub-sampled rice. The rice was stirred and mixed to evenly distribute the salt added. • Some rice was placed back into the soufflé cup, sealed, and the cup was shook to get the flavor enhancer and/or salt that may have been stuck on the walls of the soufflé cup. After shaking the soufflé cup, the rice was added back to the original sub-sampled rice and stirred/mixed again. • Each sample (test and control) was microwaved for another 30 seconds (or until warm) to ensure that the salts/compounds were going completely into the solutions. • All samples (test and control) were tasted at the same temperature. • Each test sample had 0.2% NaCl added and flavor enhancers at the specified concentrations.
A summary of the concentrations of NaCl and flavor composition peptides in the rice samples is described in table 23. The first value of each cell represents a single sample amount of an ingredient in milligrams, and the second number in parenthesis is a doubling of the ingredient (in grams) for use in a doubled size sample.
The panelists evaluated each sample for the attributes described by table 25.

[pGlu]-Cys-Cys (cysteine pairing not given here) [FE-37]
Bitter in rice (all samples (1, 10, 100 ppb)): low in bitter
Cooked green vegetable in rice compared to the Control (all samples (1, 10, 100 ppb)): low level of cooked green vegetable
Mineral/flint note in rice, not seen in the Control (all samples (1, 10, 100 ppb)): low mineral/flint note
Mouthdrying in rice, not seen in the Control (all samples (1, 10, 100 ppb)): have mouthdrying
Salt burn feeling factor in rice compared to the Control (all samples (1, 10, 100 ppb)): higher
Salt in rice compared to the Control (all samples (1, 10, 100 ppb)): saltier than the Control
Umami feeling factor in rice compared to the Control (all samples (1, 10, 100 ppb)): higher
Bitter (BASIC TASTES) (1.0 ppb (5 ppm)): 0.8
Black Pepper (1.0 ppb (5 ppm)): 1.0
Cooked Corn (1.0 ppb (5 ppm)): 0.5
Cooked Green Vegetable (1.0 ppb (5 ppm)): 0.5
Cooked White Rice (1.0 ppb (5 ppm)): 3.0
Dehydrated onion/garlic (1.0 ppb (5 ppm)): 1.3
HVP/Brothy (1.0 ppb (5 ppm)): 1.0
Mineral/Flint (1.0 ppb (5 ppm)): 0.8
Mouthdrying (Texture) (1.0 ppb (5 ppm)): 1.0
Residual Mouthcoating (Texture) (1.0 ppb (5 ppm)): 1.0
Salt (BASIC TASTES) (1.0 ppb (5 ppm)): 15.0
Salt Burn (Chemical Feeling Factors) (1.0 ppb (5 ppm)): 0.8
Sweet (BASIC TASTES) (1.0 ppb (5 ppm)): 3.0
Total Aromatics (1.0 ppb (5 ppm)): 6.0
Umami (Chemical Feeling Factors) (1.0 ppb (5 ppm)): 1.5
Vegetable Complex (1.0 ppb (5 ppm)): 1.0
Vegetable Oil (1.0 ppb (5 ppm)): 0.8
Bitter (BASIC TASTES) (10.0 ppb (50 ppm)): 1.5
Black Pepper (10.0 ppb (50 ppm)): 1.0
Cooked Corn (10.0 ppb (50 ppm)): 0.5
Cooked Green Vegetable (10.0 ppb (50 ppm)): 0.5
Cooked White Rice (10.0 ppb (50 ppm)): 3.0
Dehydrated onion/garlic (10.0 ppb (50 ppm)): 1.5
HVP/Brothy (10.0 ppb (50 ppm)): 1.5
Mineral/Flint (10.0 ppb (50 ppm)): 0.8
Mouthdrying (Texture) (10.0 ppb (50 ppm)): 1.5
Residual Mouthcoating (Texture) (10.0 ppb (50 ppm)): 1.0
Salt (BASIC TASTES) (10.0 ppb (50 ppm)): 15.5
Salt Burn (Chemical Feeling Factors) (10.0 ppb (50 ppm)): 1.3
Sweet (BASIC TASTES) (10.0 ppb (50 ppm)): 3.5
Total Aromatics (10.0 ppb (50 ppm)): 6.5
Umami (Chemical Feeling Factors) (10.0 ppb (50 ppm)): 2.5
Vegetable Complex (10.0 ppb (50 ppm)): 1.0
Vegetable Oil (10.0 ppb (50 ppm)): 0.8
Bitter (BASIC TASTES) (100 ppb (50 ppm)): 1.0
Black Pepper (100 ppb (50 ppm)): 1.0
Cooked Corn (100 ppb (50 ppm)): 0.8
Cooked Green Vegetable (100 ppb (50 ppm)): 0.8
Cooked White Rice (100 ppb (50 ppm)): 3.0
Dehydrated onion/garlic (100 ppb (50 ppm)): 1.5
HVP/Brothy (100 ppb (50 ppm)): 1.5
Mineral/Flint (100 ppb (50 ppm)): 1.0
Mouthdrying (Texture) (100 ppb (50 ppm)): 1.5
Residual Mouthcoating (Texture) (100 ppb (50 ppm)): 1.0
Salt (BASIC TASTES) (100 ppb (50 ppm)): 16.0
Salt Burn (Chemical Feeling Factors) (100 ppb (50 ppm)): 1.8
Sweet (BASIC TASTES) (100 ppb (50 ppm)): 3.5
Total Aromatics (100 ppb (50 ppm)): 6.5
Umami (Chemical Feeling Factors) (100 ppb (50 ppm)): 3.0
Vegetable Complex (100 ppb (50 ppm)): 1.5
Vegetable Oil (100 ppb (50 ppm)): 0.8

[pGlu]-Cys-Val [FE-38]
Cooked green vegetable in rice compared to the Control (1 & 100 ppb): low level of cooked green vegetable
Bitter in rice (all samples (1, 10, 100 ppb)): bitter
Mineral/flint note in rice, not seen in the Control (all samples (1, 10, 100 ppb)): low mineral/flint note
Mouthdrying in rice, not seen in the Control (all samples (1, 10, 100 ppb)): have mouthdrying
Salt burn feeling factor in rice compared to the Control (all samples (1, 10, 100 ppb)): higher
Umami feeling factor in rice compared to the Control (all samples (1, 10, 100 ppb)): higher
Bitter (BASIC TASTES) (1.0 ppb (5 ppm)): 0.8
Black Pepper (1.0 ppb (5 ppm)): 1.0
Cooked Corn (1.0 ppb (5 ppm)): 0.8
Cooked Green Vegetable (1.0 ppb (5 ppm)): 0.8
Cooked White Rice (1.0 ppb (5 ppm)): 3.0
Dehydrated onion/garlic (1.0 ppb (5 ppm)): 1.0
HVP/Brothy (1.0 ppb (5 ppm)): 1.0
Mineral/Flint (1.0 ppb (5 ppm)): 1.0
Mouthdrying (Texture) (1.0 ppb (5 ppm)): 1.8
Residual Mouthcoating (Texture) (1.0 ppb (5 ppm)): 1.0
Salt (BASIC TASTES) (1.0 ppb (5 ppm)): 13.8
Salt Burn (Chemical Feeling Factors) (1.0 ppb (5 ppm)): 1.0
Sweet (BASIC TASTES) (1.0 ppb (5 ppm)): 3.5
Total Aromatics (1.0 ppb (5 ppm)): 6.3
Umami (Chemical Feeling Factors) (1.0 ppb (5 ppm)): 2.0
Vegetable Complex (1.0 ppb (5 ppm)): 1.5
Vegetable Oil (1.0 ppb (5 ppm)): 0.8
Bitter (BASIC TASTES) (10.0 ppb (50 ppm)): 1.2
Black Pepper (10.0 ppb (50 ppm)): 1.0
Cooked Corn (10.0 ppb (50 ppm)): 1.0
Cooked Green Vegetable (10.0 ppb (50 ppm)): 0.0
Cooked White Rice (10.0 ppb (50 ppm)): 3.0
Dehydrated onion/garlic (10.0 ppb (50 ppm)): 0.8
HVP/Brothy (10.0 ppb (50 ppm)): 1.0
Mineral/Flint (10.0 ppb (50 ppm)): 1.5
Mouthdrying (Texture) (10.0 ppb (50 ppm)): 2.0
Residual Mouthcoating (Texture) (10.0 ppb (50 ppm)): 1.0
Salt (BASIC TASTES) (10.0 ppb (50 ppm)): 13.0
Salt Burn (Chemical Feeling Factors) (10.0 ppb (50 ppm)): 1.0
Sweet (BASIC TASTES) (10.0 ppb (50 ppm)): 3.3
Total Aromatics (10.0 ppb (50 ppm)): 6.0
Umami (Chemical Feeling Factors) (10.0 ppb (50 ppm)): 2.0
Vegetable Complex (10.0 ppb (50 ppm)): 1.0
Vegetable Oil (10.0 ppb (50 ppm)): 1.0
Bitter (BASIC TASTES) (100 ppb (50 ppm)): 0.8
Black Pepper (100 ppb (50 ppm)): 1.0
Cooked Corn (100 ppb (50 ppm)): 0.8
Cooked Green Vegetable (100 ppb (50 ppm)): 0.8
Cooked White Rice (100 ppb (50 ppm)): 3.0
Dehydrated onion/garlic (100 ppb (50 ppm)): 1.0
HVP/Brothy (100 ppb (50 ppm)): 1.5
Mineral/Flint (100 ppb (50 ppm)): 1.0
Mouthdrying (Texture) (100 ppb (50 ppm)): 2.5
Residual Mouthcoating (Texture) (100 ppb (50 ppm)): 1.0
Salt (BASIC TASTES) (100 ppb (50 ppm)): 13.5
Salt Burn (Chemical Feeling Factors) (100 ppb (50 ppm)): 1.3
Sweet (BASIC TASTES) (100 ppb (50 ppm)): 3.5
Total Aromatics (100 ppb (50 ppm)): 6.5
Umami (Chemical Feeling Factors) (100 ppb (50 ppm)): 3.0
Vegetable Complex (100 ppb (50 ppm)): 1.5
Vegetable Oil (100 ppb (50 ppm)): 0.8
